Data published in BigSolDB 2.1.

**Q.** For O=C(O)/C=C/C(=O)O.OCCOCCN1CCN(C2=Nc3ccccc3Sc3ccccc32)CC1.OCCOCCN1CCN(C2=Nc3ccccc3Sc3ccccc32)CC1, which solubility (mole fraction) (in 2-butanone, 283.15 K) is on record?
**A.** 0.000134

**Q.** What about the solubility (mole fraction) (in 2-butanone, 288.15 K) of the same compound?
**A.** 0.000164

**Q.** What about the solubility (mole fraction) (in 2-butanone, 293.15 K) of the same compound?
**A.** 0.000204

**Q.** What about the solubility (mole fraction) (in 2-butanone, 298.15 K) of the same compound?
**A.** 0.000251

**Q.** What about the solubility (mole fraction) (in 2-butanone, 303.15 K) of the same compound?
**A.** 0.000309

**Q.** What about the solubility (mole fraction) (in 2-butanone, 308.15 K) of the same compound?
**A.** 0.000382

**Q.** What about the solubility (mole fraction) (in 2-butanone, 313.15 K) of the same compound?
**A.** 0.000462

**Q.** And the solubility (mole fraction) (in 2-butanone, 318.15 K)?
**A.** 0.000581

**Q.** What about the solubility (mole fraction) (in 2-butanone, 323.15 K) of the same compound?
**A.** 0.000721

**Q.** What about the solubility (mole fraction) (in MIBK, 283.15 K) of the same compound?
**A.** 0.000128

**Q.** What about the solubility (mole fraction) (in MIBK, 288.15 K) of the same compound?
**A.** 0.000153

**Q.** And the solubility (mole fraction) (in MIBK, 293.15 K)?
**A.** 0.000181

**Q.** And the solubility (mole fraction) (in MIBK, 298.15 K)?
**A.** 0.000224

**Q.** What about the solubility (mole fraction) (in MIBK, 303.15 K) of the same compound?
**A.** 0.000273

**Q.** What about the solubility (mole fraction) (in MIBK, 308.15 K) of the same compound?
**A.** 0.000328

**Q.** What about the solubility (mole fraction) (in MIBK, 313.15 K) of the same compound?
**A.** 0.000398

**Q.** What about the solubility (mole fraction) (in MIBK, 318.15 K) of the same compound?
**A.** 0.000475

**Q.** And the solubility (mole fraction) (in MIBK, 323.15 K)?
**A.** 0.000571

**Q.** And the solubility (mole fraction) (in MTBE, 283.15 K)?
**A.** 4.36e-05

**Q.** And the solubility (mole fraction) (in MTBE, 288.15 K)?
**A.** 5.55e-05

**Q.** And the solubility (mole fraction) (in MTBE, 293.15 K)?
**A.** 6.74e-05

**Q.** What about the solubility (mole fraction) (in MTBE, 298.15 K) of the same compound?
**A.** 8.27e-05

**Q.** And the solubility (mole fraction) (in MTBE, 303.15 K)?
**A.** 0.000107

**Q.** And the solubility (mole fraction) (in MTBE, 308.15 K)?
**A.** 0.00013

**Q.** What about the solubility (mole fraction) (in MTBE, 313.15 K) of the same compound?
**A.** 0.000161

**Q.** What about the solubility (mole fraction) (in MTBE, 318.15 K) of the same compound?
**A.** 0.000192

**Q.** And the solubility (mole fraction) (in MTBE, 323.15 K)?
**A.** 0.000241

**Q.** And the solubility (mole fraction) (in THF, 283.15 K)?
**A.** 0.000705

**Q.** And the solubility (mole fraction) (in THF, 288.15 K)?
**A.** 0.000873

**Q.** And the solubility (mole fraction) (in THF, 293.15 K)?
**A.** 0.00108

**Q.** What about the solubility (mole fraction) (in THF, 298.15 K) of the same compound?
**A.** 0.00133

**Q.** And the solubility (mole fraction) (in THF, 303.15 K)?
**A.** 0.00167

**Q.** What about the solubility (mole fraction) (in THF, 308.15 K) of the same compound?
**A.** 0.00208

**Q.** What about the solubility (mole fraction) (in THF, 313.15 K) of the same compound?
**A.** 0.00261

**Q.** And the solubility (mole fraction) (in THF, 318.15 K)?
**A.** 0.00323

**Q.** What about the solubility (mole fraction) (in THF, 323.15 K) of the same compound?
**A.** 0.00409

**Q.** And the solubility (mole fraction) (in dichloromethane, 283.15 K)?
**A.** 0.000174

**Q.** And the solubility (mole fraction) (in dichloromethane, 288.15 K)?
**A.** 0.000213

**Q.** What about the solubility (mole fraction) (in dichloromethane, 293.15 K) of the same compound?
**A.** 0.000279

**Q.** And the solubility (mole fraction) (in dichloromethane, 298.15 K)?
**A.** 0.000365

**Q.** What about the solubility (mole fraction) (in dichloromethane, 303.15 K) of the same compound?
**A.** 0.00046

**Q.** And the solubility (mole fraction) (in dichloromethane, 308.15 K)?
**A.** 0.000597

**Q.** What about the solubility (mole fraction) (in dichloromethane, 313.15 K) of the same compound?
**A.** 0.000775

**Q.** And the solubility (mole fraction) (in ethyl formate, 283.15 K)?
**A.** 8.6e-05

**Q.** What about the solubility (mole fraction) (in ethyl formate, 288.15 K) of the same compound?
**A.** 0.000105

**Q.** And the solubility (mole fraction) (in ethyl formate, 293.15 K)?
**A.** 0.000125

**Q.** And the solubility (mole fraction) (in ethyl formate, 298.15 K)?
**A.** 0.000158

**Q.** And the solubility (mole fraction) (in ethyl formate, 303.15 K)?
**A.** 0.000197

**Q.** What about the solubility (mole fraction) (in ethyl formate, 308.15 K) of the same compound?
**A.** 0.00024

**Q.** What about the solubility (mole fraction) (in ethyl formate, 313.15 K) of the same compound?
**A.** 0.000291

**Q.** What about the solubility (mole fraction) (in ethyl formate, 318.15 K) of the same compound?
**A.** 0.000362

**Q.** What about the solubility (mole fraction) (in ethyl formate, 323.15 K) of the same compound?
**A.** 0.000445

**Q.** And the solubility (mole fraction) (in isopropyl acetate, 283.15 K)?
**A.** 3.95e-05

**Q.** And the solubility (mole fraction) (in isopropyl acetate, 288.15 K)?
**A.** 4.7e-05

**Q.** And the solubility (mole fraction) (in isopropyl acetate, 293.15 K)?
**A.** 5.77e-05

**Q.** What about the solubility (mole fraction) (in isopropyl acetate, 298.15 K) of the same compound?
**A.** 6.96e-05

**Q.** What about the solubility (mole fraction) (in isopropyl acetate, 303.15 K) of the same compound?
**A.** 8.3e-05

**Q.** And the solubility (mole fraction) (in isopropyl acetate, 308.15 K)?
**A.** 0.000104

**Q.** What about the solubility (mole fraction) (in isopropyl acetate, 313.15 K) of the same compound?
**A.** 0.000127

**Q.** And the solubility (mole fraction) (in isopropyl acetate, 318.15 K)?
**A.** 0.000158

**Q.** And the solubility (mole fraction) (in isopropyl acetate, 323.15 K)?
**A.** 0.000191

**Q.** What about the solubility (mole fraction) (in n-heptane, 283.15 K) of the same compound?
**A.** 1.59e-05

**Q.** What about the solubility (mole fraction) (in n-heptane, 288.15 K) of the same compound?
**A.** 1.94e-05

**Q.** What about the solubility (mole fraction) (in n-heptane, 293.15 K) of the same compound?
**A.** 2.44e-05

**Q.** And the solubility (mole fraction) (in n-heptane, 298.15 K)?
**A.** 3.02e-05

**Q.** What about the solubility (mole fraction) (in n-heptane, 303.15 K) of the same compound?
**A.** 3.61e-05

**Q.** What about the solubility (mole fraction) (in n-heptane, 308.15 K) of the same compound?
**A.** 4.57e-05

**Q.** And the solubility (mole fraction) (in n-heptane, 318.15 K)?
**A.** 6.96e-05

**Q.** And the solubility (mole fraction) (in n-hexane, 283.15 K)?
**A.** 1.46e-05

**Q.** What about the solubility (mole fraction) (in n-hexane, 288.15 K) of the same compound?
**A.** 1.77e-05

**Q.** And the solubility (mole fraction) (in n-hexane, 293.15 K)?
**A.** 2.17e-05

**Q.** What about the solubility (mole fraction) (in n-hexane, 298.15 K) of the same compound?
**A.** 2.75e-05

**Q.** What about the solubility (mole fraction) (in n-hexane, 303.15 K) of the same compound?
**A.** 3.3e-05

**Q.** What about the solubility (mole fraction) (in n-hexane, 308.15 K) of the same compound?
**A.** 4.17e-05

**Q.** And the solubility (mole fraction) (in n-hexane, 313.15 K)?
**A.** 5.15e-05

**Q.** And the solubility (mole fraction) (in n-hexane, 318.15 K)?
**A.** 6.53e-05

**Q.** And the solubility (mole fraction) (in n-hexane, 323.15 K)?
**A.** 8.16e-05

**Q.** And the solubility (mole fraction) (in n-propanol, 283.15 K)?
**A.** 0.000244

**Q.** What about the solubility (mole fraction) (in n-propanol, 288.15 K) of the same compound?
**A.** 0.000317

**Q.** What about the solubility (mole fraction) (in n-propanol, 293.15 K) of the same compound?
**A.** 0.000396

**Q.** What about the solubility (mole fraction) (in n-propanol, 298.15 K) of the same compound?
**A.** 0.000497

**Q.** And the solubility (mole fraction) (in n-propanol, 303.15 K)?
**A.** 0.000614

**Q.** What about the solubility (mole fraction) (in n-propanol, 308.15 K) of the same compound?
**A.** 0.000797

**Q.** What about the solubility (mole fraction) (in n-propanol, 313.15 K) of the same compound?
**A.** 0.00101

**Q.** And the solubility (mole fraction) (in n-propanol, 318.15 K)?
**A.** 0.00126

**Q.** And the solubility (mole fraction) (in n-propanol, 323.15 K)?
**A.** 0.0016

**Q.** And the solubility (mole fraction) (in toluene, 283.15 K)?
**A.** 3.01e-05

**Q.** What about the solubility (mole fraction) (in toluene, 288.15 K) of the same compound?
**A.** 3.49e-05

**Q.** What about the solubility (mole fraction) (in toluene, 293.15 K) of the same compound?
**A.** 4.19e-05

**Q.** And the solubility (mole fraction) (in toluene, 298.15 K)?
**A.** 4.98e-05

**Q.** What about the solubility (mole fraction) (in toluene, 303.15 K) of the same compound?
**A.** 5.82e-05

**Q.** What about the solubility (mole fraction) (in toluene, 308.15 K) of the same compound?
**A.** 7.09e-05

**Q.** What about the solubility (mole fraction) (in toluene, 313.15 K) of the same compound?
**A.** 8.5e-05

**Q.** What about the solubility (mole fraction) (in toluene, 318.15 K) of the same compound?
**A.** 0.000102

**Q.** What about the solubility (mole fraction) (in toluene, 323.15 K) of the same compound?
**A.** 0.000121
